Test [1] has as its target T1, TBK1 (Homo sapiens, UniProt Q9UHD2).
T1 sequence (Q9UHD2 1-729): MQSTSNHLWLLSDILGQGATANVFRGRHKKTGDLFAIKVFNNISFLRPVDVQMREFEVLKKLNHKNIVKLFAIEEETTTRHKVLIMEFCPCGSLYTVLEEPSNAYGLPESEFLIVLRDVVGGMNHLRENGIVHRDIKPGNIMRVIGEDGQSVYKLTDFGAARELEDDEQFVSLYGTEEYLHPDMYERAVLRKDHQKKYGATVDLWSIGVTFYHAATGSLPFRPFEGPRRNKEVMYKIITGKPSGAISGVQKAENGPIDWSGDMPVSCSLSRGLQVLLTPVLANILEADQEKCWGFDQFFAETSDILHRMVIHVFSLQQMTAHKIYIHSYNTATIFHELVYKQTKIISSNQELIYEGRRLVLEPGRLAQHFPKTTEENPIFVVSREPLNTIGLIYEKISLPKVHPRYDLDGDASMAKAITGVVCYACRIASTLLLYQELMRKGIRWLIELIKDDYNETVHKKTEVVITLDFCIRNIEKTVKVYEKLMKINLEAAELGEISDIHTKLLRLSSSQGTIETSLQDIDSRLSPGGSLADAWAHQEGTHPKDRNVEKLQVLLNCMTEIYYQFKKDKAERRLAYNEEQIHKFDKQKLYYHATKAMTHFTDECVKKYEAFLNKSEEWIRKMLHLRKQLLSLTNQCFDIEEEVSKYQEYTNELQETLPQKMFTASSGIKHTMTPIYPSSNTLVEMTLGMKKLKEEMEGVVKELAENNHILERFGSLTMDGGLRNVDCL
Kind of test: TBK Biochemical Assay. The note with it: read-out: TBK1 IC50. In a few lines: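 TBK1 enzyme and substrate incubated with compounds (10-point 1:4 dilution, top 30 uM final, 1% DMSO) for 90 min at 25° C, then stopped. Substrate/product peaks read by microfluidic mobility-shift (Caliper LabChip); 10 uM staurosporine as full-inhibition control.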

The target of test [2] is T2, IKKε (Homo sapiens, UniProt Q14164).
T2 sequence (Q14164 1-716): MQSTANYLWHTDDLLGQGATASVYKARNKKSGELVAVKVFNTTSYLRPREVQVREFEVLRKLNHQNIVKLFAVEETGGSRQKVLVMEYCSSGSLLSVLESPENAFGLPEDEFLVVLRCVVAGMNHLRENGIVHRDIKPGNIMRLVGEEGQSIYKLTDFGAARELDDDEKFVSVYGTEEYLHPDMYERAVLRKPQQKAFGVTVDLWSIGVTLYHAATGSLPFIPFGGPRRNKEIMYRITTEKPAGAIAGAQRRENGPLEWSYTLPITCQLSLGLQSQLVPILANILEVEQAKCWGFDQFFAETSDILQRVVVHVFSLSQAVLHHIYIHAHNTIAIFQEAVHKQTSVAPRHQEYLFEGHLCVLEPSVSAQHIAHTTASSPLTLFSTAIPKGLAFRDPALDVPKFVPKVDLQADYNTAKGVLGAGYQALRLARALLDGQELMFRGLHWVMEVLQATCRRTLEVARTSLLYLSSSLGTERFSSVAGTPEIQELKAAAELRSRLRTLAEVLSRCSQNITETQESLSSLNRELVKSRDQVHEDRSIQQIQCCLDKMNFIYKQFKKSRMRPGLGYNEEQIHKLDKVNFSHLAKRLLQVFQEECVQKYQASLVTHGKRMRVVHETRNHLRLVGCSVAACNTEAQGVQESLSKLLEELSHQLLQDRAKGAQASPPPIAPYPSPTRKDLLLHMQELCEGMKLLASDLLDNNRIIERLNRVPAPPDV
Kind of test: IKKe Biochemical Assay. To be noted: read-out: IKKε IC50. In a few lines: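 Recombinant IKKε and substrate were incubated with compound (10-point 1:4 series, top 30 uM final, 1% DMSO) for 90 min at 25° C, then stopped. Substrate-to-product conversion was read by LabChip microfluidic mobility shift; 10 uM staurosporine served as full-inhibition wells.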

In test [3] the test system is phosphorylation of the IRF-3 protein in MDA-MB-468 cells. The test is described as follows: pIRF3 immunocytochemistry cell based assay. The note with it: Homo sapiens. The method, boiled down: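 MDA-MB-468 cells got compounds (10-point, 3-fold from 10 uM) for 1 h at 37 °C, then 10 ug/ml Poly(I:C) for 2 h. Fixed, permeabilized cells were immunostained for pIRF3 with AlexaFluor488 and counterstained with PI. % phosphorylation was read by laser scanning cytometry, and IC50 curves were fitted.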

Setting [4] is: MDA-MB-468 cells, Poly(I:C) stimulation, read-out: pIRF3 IC50.

Counter-ions that a name gives are not always drawn. Like-named read-outs stand apart in the source and are kept apart here. Bounds are passed on as bounds.

In general, IC50 refers to the concentration at which inhibition is half-maximal.

Consider `COc1cc(C(=O)NC2C3COCC32)ncc1-c1cc2nccc(-c3ccc(N4CC[C@H](F)C4)c(C#N)c3)c2o1` (stereo partly drawn) [Compound 451, 5-(7-[3-cyano-4-[(3S)-3-fluoropyrrolidin-1-yl]phenyl]furo[3,2-b]pyridin-2-yl)-4-methoxy-N-[3-oxabicyclo[3.1.0]hexan-6-yl]pyridine-2-carboxamide], for which the figures for the half-maximal inhibitory concentration (IC50) in test [1], in test [2] and in test [3] (setting [4]) were below 100 nM, below 100 nM and 100 to 1000 nM, respectively.
In the case of `CN(C)C(=O)c1ccc(-c2cc3nccc(-c4ccc(N5CC[C@H](F)C5)c(C#N)c4)c3o2)cc1` [Compound 106, 4-{7-[3-Cyano-4-((S)-3-fluoro-pyrrolidin-1-yl)-phenyl]-furo[3,2-b]pyridin-2-yl}-N,N-dimethyl-benzamide], the IC50 in test [1] is below 100 nM; in test [2], below 100 nM; in test [3] (setting [4]), 100 to 1000 nM.
On to `COc1cc(C(=O)N(C)C)ccc1-c1cc2nccc(-c3ccc(OCC4CCOC4)c(C#N)c3)c2o1` (stereo not drawn) [Compound 93, 4-{7-[3-Cyano-4-(tetrahydro-furan-3-ylmethoxy)-phenyl]-furo[3,2-b]pyridin-2-yl}-3-methoxy-N,N-dimethyl-benzamide], for which the values for the IC50 in test [1], in test [2] and in test [3] (setting [4]) were below 100 nM, below 100 nM and 100 to 1000 nM, respectively.
Regarding `COc1cc(C(=O)N2CC3C2CCN3C)ccc1-c1cc2nccc(-c3ccc(OC4CCOCC4)c(C#N)c3)c2o1` (stereo not drawn) [Compound 474, 5-{2-[2-Methoxy-4-(2-methyl-2,6-diaza-bicyclo[3.2.0]heptane-6-carbonyl)-phenyl]-furo[3,2-b]pyridin-7-yl}-2-(tetrahydro-pyran-4-yloxy)-benzonitrile], the IC50 in test [1], in test [2] and in test [3] (setting [4]) was below 100 nM throughout.
`COc1cc(C(=O)NC2CC(N3CCCC3)C2)ccc1-c1cc2nccc(-c3ccc(OC4CCOCC4)c(C#N)c3)c2o1` (stereo not drawn) [Compound 371, 4-(7-(3-cyano-4-(tetrahydro-2H-pyran-4-yloxy)phenyl)furo[3,2-b]pyridin-2-yl)-3-methoxy-N-(3-(pyrrolidin-1-yl)cyclobutyl)benzamide]: the IC50 in test [1] is below 100 nM; in test [2] it was below 100 nM; in test [3] (MDA-MB-468, read-out: pIRF3 IC50) it was 100 to 1000 nM.
In the case of `COc1cc(C(=O)N(C)C)ccc1-c1cc2nccc(-c3cnc(OC4CCOCC4)c(C#N)c3)c2o1` [Compound 109, 4-{7-[5-Cyano-6-(tetrahydro-pyran-4-yloxy)-pyridin-3-yl]-furo[3,2-b]pyridin-2-yl}-3-methoxy-N,N-dimethyl-benzamide], the IC50 was below 100 nM in test [1], below 100 nM in test [2] and 100 to 1000 nM in test [3] (setting [4]).
For the molecule `COc1cc(C(=O)N[C@@H]2CN3CCC2CC3)ncc1-c1cc2nccc(-c3ccc(N4CC[C@H](F)C4)c(C#N)c3)c2o1` [Compound 444, 5-{7-[3-Cyano-4-((S)-3-fluoro-pyrrolidin-1-yl)-phenyl]-furo[3,2-b]pyridin-2-yl}-4-methoxy-pyridine-2-carboxylic acid (1-aza-bicyclo[2.20.2]oct-3-yl)-amide], the IC50 in test [1], in test [2] and in test [3] (setting [4]) was below 100 nM throughout.
For the molecule `COc1cc(C(=O)N(C)C)cnc1-c1cc2nccc(-c3ccc(NC4CCNC4)c(C#N)c3)c2o1` (stereo not drawn) [Compound 432, 6-(7-[3-cyano-4-[(pyrrolidin-3-yl)amino]phenyl]furo[3,2-b]pyridin-2-yl)-5-methoxy-N,N-dimethylpyridine-3-carboxamide], the concentration for half-maximal inhibition (IC50) in test [1], in test [2] and in test [3] (setting [4]) was below 100 nM throughout.
In the case of `COc1cc(C(=O)N(C)C)ncc1-c1cc2nccc(-c3ccc(OC4CCN(C)CC4(F)F)c(C#N)c3)c2o1` (stereo not drawn) [Compound 419, 5-(7-[3-cyano-4-[(3,3-difluoro-1-methylpiperidin-4-yl)oxy]phenyl]furo[3,2-b]pyridin-2-yl)-4-methoxy-N,N-dimethylpyridine-2-carboxamide], the half-inhibitory concentration (IC50) in test [1] is below 100 nM; in test [2] it was below 100 nM; in test [3] (setting [4]), 100 to 1000 nM.
As for `COc1cc(C(=O)N2CC3COCC3C2)ccc1-c1cc2nccc(-c3ccc(OC4CCOCC4)c(C#N)c3)c2o1` (stereo not drawn) [Compound 504], the IC50 is below 100 nM in test [1], below 100 nM in test [2] and 100 to 1000 nM in test [3] (setting [4]).
With `COc1cc(C(=O)N2CC[C@H](N(C)C)C2)ncc1-c1cc2nccc(-c3ccc(N4CC[C@H](F)C4)c(C#N)c3)c2o1` [Compound 449, 5-[2-(6-[[(3S)-3-(dimethylamino)pyrrolidin-1-yl]carbonyl]-4-methoxypyridin-3-yl)furo[3,2-b]pyridin-7-yl]-2-[(3S)-3-fluoropyrrolidin-1-yl]benzonitrile], the half-maximal inhibitory concentration (IC50) in test [1], in test [2] and in test [3] (setting [4]) was below 100 nM each time.
For the molecule `COc1cc(C(=O)NCCN2CCC2)ccc1-c1cc2nccc(-c3ccc(OC4CCOCC4)c(C#N)c3)c2o1` [Compound 477, N-(2-Azetidin-1-yl-ethyl)-4-{7-[3-cyano-4-(tetrahydro-pyran-4-yloxy)-phenyl]-furo[3,2-b]pyridin-2-yl}-3-methoxy-benzamide], the figures for the IC50 in test [1], in test [2] and in test [3] (setting [4]) were below 100 nM, below 100 nM and 100 to 1000 nM, respectively.
For the molecule `CN(C)C(=O)c1ccc(-c2cc3nccc(-c4ccc(OC5CCCOC5)c(C#N)c4)c3o2)cc1` (stereo not drawn) [Compound 160], the IC50 in test [1] was 100 to 1000 nM; in test [2], below 100 nM; in test [3] (setting [4]), 1000 to 5000 nM.
Consider `COc1cc(C(=O)N2CC(O)C2)ccc1-c1cc2nccc(-c3ccc(OC4CCOCC4)c(C#N)c3)c2o1` [Compound 39, 5-{2-[4-(3-Hydroxy-azetidine-1-carbonyl)-2-methoxy-phenyl]-furo[3,2-b]pyridin-7-yl}-2-(tetrahydro-pyran-4-yloxy)-benzonitrile], for which the concentration for half-maximal inhibition (IC50) was below 100 nM in test [1], below 100 nM in test [2] and 100 to 1000 nM in test [3] (setting [4]).
With `COc1cc(C(=O)NC2CCC(=O)NC2C)ccc1-c1cc2nccc(-c3ccc(OC4CCOCC4)c(C#N)c3)c2o1` (stereo not drawn) [Compound 369, 4-[7-[3-cyano-4-(oxan-4-yloxy)phenyl]furo[3,2-b]pyridin-2-yl]-3-methoxy-N-(2-methyl-6-oxopiperidin-3-yl)benzamide], the figures for the IC50 in test [1], in test [2] and in test [3] (setting [4]) were below 100 nM, below 100 nM and 100 to 1000 nM, respectively.
For `COc1cc(C(=O)N(C)C)ccc1-c1cc2nccc(-c3ccc(C4(N5CCOCC5)CC4)c(C#N)c3)c2o1` [Compound 292, 4-(7-[3-cyano-4-[1-(morpholin-4-yl)cyclopropyl]phenyl]furo[3,2-b]pyridin-2-yl)-3-methoxy-N,N-dimethylbenzamide hydrochloride], the IC50 in test [1], in test [2] and in test [3] (setting [4]) was 100 to 1000 nM in each case.
Take `COc1cc(C(=O)N2C[C@H]3C[C@@H](O)C[C@H]3C2)ccc1-c1cc2nccc(-c3ccc(OC4CCOCC4)c(C#N)c3)c2o1` [Compound 32, 5-{2-[4-((3aR,5R,6aS)-5-Hydroxy-hexahydro-cyclopenta[c]pyrrole-2-carbonyl)-2-methoxy-phenyl]-furo[3,2-b]pyridin-7-yl}-2-(tetrahydro-pyran-4-yloxy)-benzonitrile]: the IC50 in test [1], in test [2] and in test [3] (setting [4]) was below 100 nM each time.

The values above are taken from patent publication US10428080B2, “TBK/IKK inhibitor compounds and uses thereof” (Merck Patent GmbH, priority 2015, dated 2019).
